Reference: patent US20140357706A1, “Stearate Compounds” (THE UAB RESEARCH FOUNDATION, priority 2011, published 2014)

Key:
[1] = system: visceral adipocytes from ApoE knockout mice; experiment: Expression of cIAP2, Bcl-2 and Bax in visceral adipocyte cultures; type: cell-based; details: 50 μM fatty acid; vs no additional fatty acid
Experimental: It was hypothesized that stearate induces apoptosis in visceral adipocytes by at least one of the following mechanisms: inhibition of cIAP2, activation of Bcl-2, and activation of BAX. […] Six cultures were exposed to each fatty acid or no fatty acid. The expression of cIAP2, Bcl-2, and Bax was measured in each culture. […] By decreasing levels of the cIAP2 and/or Bcl-2 polypeptides and increasing expression of the Bax polypeptide, stearate administration may lead to an increase in cellular apoptotic activity (such as but not limited to the visceral fat tissues). Without wishing to be bound by any given hypothetical model, it is proposed that this reduction in cIAP2 expression and this increase in Bax expression (independently or in combination) is responsible for the relative decrease in visceral fat tissue that is observed when animals are given a diet that is high in stearate.

[2] = system: differentiated 3T3L1 adipocytes; experiment: Necrosis and apoptosis of differentiated 3T3L1 adipocytes (trypan blue, LDH, flow cytometry); type: cell-based, mouse; details: 50 μM
Experimental: 3T3L1 mouse fibroblast cells (ATCC, CL-173™) were maintained according to the manufacture's protocol, in Dulbecco's modified eagle's medium (DMEM) containing 10% Fetal Bovine Serum and antibiotics (M1 medium). Adipocyte differentiation was performed according to standard procedures (42). Briefly, the 3T3L1 fibroblasts were seeded at 30% confluence and allowed to grow to near 100% confluence. On the day after reaching maximum confluence, conversion was induced by replacing the M1 medium with M1 medium containing insulin (5 μg/ml), dexamethasone (0.25 μM), and 3-isobutyl-1-methyl-xanthine (0.5 mM). After 2 days, the cells were changed to M1 medium with insulin (5 μg/ml) for an additional 2 days. Thereafter, the cells were maintained in M1 medium without additives for 2 days.
50 μM of stearate, oleate or linoleate was used to treat 3T3L1 cells as this concentration is centered within the normal range for non-esterified stearate in the plasma of humans. Stearate, oleate, or linoleate was loaded onto fatty acid free BSA according to the method reported by Spector and Hoak (Spector and Hoak, 1969). Briefly, stearate (0.5 g) was dissolved in chloroform (100 mL) and mixed well with 10 g diatomaceous earth in a 1 liter flask. The mixture was stirred and dried under nitrogen until powder. Fatty acid free BSA (1 g) was dissolved in 100 mL with DMEM without phenol red and mixed with 3 g of the stearate/diatomaceous earth mixture and stirred for 30 minutes. The stearate/BSA solution was filtered through a 0.45 μm filter, and adjusted to pH 7.4. The concentration of stearate in the solution was detected by use of a NEFA C kit. Oleic and linoleate were loaded in the same way. […] Before the treatment with fatty acid, 3T3L1 preadipocytes were grown to 100%, and were starved in 2% FBS medium for 24 hours.
After treatment, 3T3L1 cells were harvested, washed with cold PBS, and then resuspended in 100 μl annexin-binding buffer (50 mM HEPES, 700 mM NaCl, 12.5 mM CaCl2, pH 7.4). Cell density was determined, and the cells were diluted to 10^6 cells. Then 5μL of Alex Fluo 488 annexin V and 1 μL propidium iodide (PI) were added. Cells were gently oscillated and incubated for 15 min at room temperature. After adding 400 μL of binding buffer to each tube, cells were kept on ice and analyzed by flow cytometry within 1 hour. Cells that stained positive for Alex Fluo 488 annexin V and negative for PI were considered to be apoptotic. Cells that stained positive for both Alex Fluo 488 annexin V and PI were considered either in the end stage of apoptosis, or necrosis. Cells that stained negative for both Alex Fluo 488 annexin V and PI were considered alive and not undergoing measurable apoptosis. A BD LSR II flow cytometer from Becton Dickinson was used in all flow experiments and the data were analyzed with BD FACSDiva™ software V.6.1.3.
Lactate dehydrogenase (LDH) release was measured using a cytotoxicity detection kit, according to the manufacture's protocol. After 3T3L1 cells were treated, 1 ml of cell culture medium was removed and centrifuged. The supernatant was retained for assaying. For determinations, 100 μl of LDH assay reagent was added to 100 μl of supernatant and incubated for 30 min at room temperature in the dark. Absorbance was measured at 490 nm. Background release from culture medium alone was subtracted before reporting. Maximum release was measured after adding 2% Triton X-100 to untreated cells.
After treatment, 3T3L1 cells were harvested and stained with 0.4% trypan blue solution. Cells in the four corners of the grid were counted under a conventional bright field binocular microscope.

CCCCCCCCCCCCCCCCCC(=O)O [stearate, Stearic acid]
Expression of Bax [1]: increases | Expression of cIAP2 [1]: reduces | Cytotoxicity (lactate dehydrogenase in medium) [2]: no significant changes | Percentage of apoptotic cells (flow cytometry) [2]: no significant changes | Percentage of dead cells (flow cytometry) [2]: no significant changes | Percentage of dead cells (trypan blue) [2]: no significant changes
